Experimental data: patent publication US7253169B2, “Aza compounds, pharmaceutical compositions and methods of use” (Gliamed, Inc., priority 1999, dated 2007)

What follows are compounds tested against FKBP (Homo sapiens, UniProt P62942) (assay: Ki Test: inhibition of peptidyl-prolyl isomerase (rotamase) activity, chymotrypsin-coupled assay). Conditions: apparent Ki.
Type: biochemical
Description: Inhibition of the peptidyl-prolyl isomerase (rotamase) activity of the inventive compounds can be evaluated by known methods described in the literature (Harding et al., Nature, 1989, 341:758-760; Holt et al. J. Am. Chem. Soc., 115:9923-9938). These values are obtained as apparent Ki's and are presented for representative compounds in Table V. The cis-trans isomerization of an alanine-proline bond in a model substrate, N-succinyl-Ala-Ala-Pro-Phe-p-nitroanilide, is monitored spectrophotometrically in a chymotrypsin-coupled assay, which releases para-nitroanilide from the trans form of the substrate. The inhibition of this reaction caused by the addition of different concentrations of inhibitor is determined, and the data is analyzed as a change in first-order rate constant as a function of inhibitor concentration to yield the apparent Ki values.
In a plastic cuvette are added […] of ice cold assay buffer (25 mM HEPES, pH 7.8, 100 mM NaCl), […] of FKBP (2.5 mM in 10 mM Tris-Cl pH 7.5, 100 mM NaCl, 1 mM dithiothreitol), […] of chymotrypsin (50 mg/ml in 1 mM HCl) and […] of test compound at various concentrations in dimethyl sulfoxide. […]
The absorbance at 390 nm versus time is monitored for 90 seconds using a spectrophotometer and the rate constants are determined from the absorbance versus time data files.

Sequence of FKBP (P62942 whole entry): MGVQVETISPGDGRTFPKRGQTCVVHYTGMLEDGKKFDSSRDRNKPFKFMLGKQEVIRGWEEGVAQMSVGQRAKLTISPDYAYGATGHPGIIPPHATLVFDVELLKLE

For CCC(C)(C)C(=O)C(=O)N1CCCN1C(=O)CCCCc1ccccc1 [Compound 1, 3,3-dimethyl-N-[2-(5-phenylpentanoyl) -tetrahydro-1H-1-pyrazolyl]-1,2-pentanedione], which Ki is on record?
Its Ki is 1170 nM.

How did the Ki turn out when CCC(C)(C)C(=O)C(=O)N1CCCCN1C(=O)CCCCCc1cccnc1 [Compound 13, 3,3-dimethyl-2-[2-(6-(3-pyridyl)hexanoyl)-perhydropyridazinyl]-pentane-1,2-dione] was run?
The Ki was 3210 nM.

These compounds were tested on TH-stained dopaminergic neurons (assay: MPTP Model of Parkinson's Disease). Conditions: MPTP-lesioned CD1 mice, 4 mg/kg s.c.
Type: in vivo

For CCC(C)(C)C(=O)C(=O)N1CCCN1C(=O)CCCCc1ccccc1 [Compound 1, 3,3-dimethyl-N-[2-(5-phenylpentanoyl) -tetrahydro-1H-1-pyrazolyl]-1,2-pentanedione], which “% TH recov 4 mg/kg s.c.” value is on record?
Its value is 14%.

Same assay, conditions: MPTP-lesioned CD1 mice, 10 mg/kg p.o.

For CCC(C)(C)C(=O)C(=O)N1CCCCN1C(=O)OCCCc1ccccc1 [Compound 14, 3-phenylpropyl 2-(3,3-dimethyl-2-oxopentanoyl)-perhydropyridazine-carboxylate], which “% TH recov 10 mg/kg p.o.” value is on record?
The value was 3%.

Same assay, conditions: Mus musculus, Neuron, po; MPTP-lesioned CD1 mice, 10 mg/kg p.o.; read-out: % TH recov 10 mg/kg p.o.

Which % recovery of TH-stained dopaminergic neurons at 10 mg/kg does the source give for CCC(C)(C)C(=O)C(=O)N1CCCN1C(=O)CCc1ccccc1 [Compound 2, 3,3-dimethyl-N-[2-(3-phenylpropanoyl)tetra-hydro-1H-1-pyrazolyl]-1,2-pentanedione] here?
The % recovery of TH-stained dopaminergic neurons at 10 mg/kg was 10%.

Which % recovery of TH-stained dopaminergic neurons at 10 mg/kg does the source give for CCC(C)(C)C(=O)C(=O)N1CCCN1C(=O)CCC#Cc1cccnc1 [Compound 3, 3,3-dimethyl-1-[2-(5-(3-pyridyl)pent-4-ynoyl)-pyrazolidinyl]-pentane-1,2-dione] here?
The % recovery of TH-stained dopaminergic neurons at 10 mg/kg was 26%.

For CCC(C)(C)C(=O)C(=O)N1CCCN1C(=O)CCCc1ccccc1 [Compound 5, 3,3-dimethyl-1-[2-(4-phenylbutanoyl)-pyrazolidinyl]pentane-1,2-dione], which % recovery of TH-stained dopaminergic neurons at 10 mg/kg is on record?
Its % recovery of TH-stained dopaminergic neurons at 10 mg/kg is 4%.

With CCC(C)(C)C(=O)C(=O)N1CCCN1C(=O)CCCCCc1ccccc1 [Compound 6, 3,3-dimethyl-1-[2-(6-phenylhexanoyl)-pyrazolidinyl]pentane-1,2-dione] as the compound, how does the % recovery of TH-stained dopaminergic neurons at 10 mg/kg read?
The % recovery of TH-stained dopaminergic neurons at 10 mg/kg was 32%.

How did the % recovery of TH-stained dopaminergic neurons at 10 mg/kg turn out when CCC(C)(C)C(=O)C(=O)N1CCCN1C(=O)CCCCc1cccnc1 [Compound 7, 3,3-dimethyl-1-[2-(5-(3-pyridyl)pentanoyl)-pyrazolidinyl]pentane-1,2-dione] was run?
The % recovery of TH-stained dopaminergic neurons at 10 mg/kg was 57%.

For CCC(C)(C)C(=O)C(=O)N1CCCCN1C(=O)CCCCCc1ccccc1 [Compound 12, 3,3-dimethyl-1-[2-(6-phenylhexanoyl)-perhydropyridazinyl]-pentane-1,2-dione], which % recovery of TH-stained dopaminergic neurons at 10 mg/kg is on record?
The % recovery of TH-stained dopaminergic neurons at 10 mg/kg was 35%.

How did the % recovery of TH-stained dopaminergic neurons at 10 mg/kg turn out when CCC(C)(C)C(=O)C(=O)N1CCCCN1C(=O)CCCCCc1cccnc1 [Compound 13, 3,3-dimethyl-2-[2-(6-(3-pyridyl)hexanoyl)-perhydropyridazinyl]-pentane-1,2-dione] was run?
Its % recovery of TH-stained dopaminergic neurons at 10 mg/kg is 18%.

With CCC(C)(C)C(=O)C(=O)N1CCCCN1C(=O)OCCCCc1ccccc1 [Compound 15, 4-phenylbutyl 2-(3,3-dimethyl-2-oxopentanoyl)perhydro-pyridazinecarboxylate] as the compound, how does the % recovery of TH-stained dopaminergic neurons at 10 mg/kg read?
The % recovery of TH-stained dopaminergic neurons at 10 mg/kg was 21%.

With CCC(C)(C)C(=O)C(=O)N1CCCCN1C(=O)OCCCCCc1ccccc1 [Compound 16, 5-phenylpentyl 2-(3,3-dimethyl-2-oxopentanoyl)perhydro-pyridazinecarboxylate] as the compound, how does the % recovery of TH-stained dopaminergic neurons at 10 mg/kg read?
Its % recovery of TH-stained dopaminergic neurons at 10 mg/kg is 49%.

CCC(C)(C)C(=O)C(=O)N1CCCCN1C(=O)OCCCCc1cccnc1 [Compound 17, 4-(3-pyridyl)butyl 2-(3,3-dimethyl-2-oxopentanoyl)-perhydropyridazine-carboxylate] was tested. Which % recovery of TH-stained dopaminergic neurons at 10 mg/kg did it give?
The % recovery of TH-stained dopaminergic neurons at 10 mg/kg was 38%.

Which % recovery of TH-stained dopaminergic neurons at 10 mg/kg does the source give for CCC(C)(C)C(=O)C(=O)N1CCCCN1C(=O)CCCCc1ccccc1 [Compound 18, 3,3-dimethyl-1-[2-({5-phenyl)pentanoyl)-perhydropyridazinyl]-pentane-1,2-dione] here?
The % recovery of TH-stained dopaminergic neurons at 10 mg/kg was 18%.

For O=C(OCCCCc1ccccc1)N1CCCCN1S(=O)(=O)Cc1ccccc1 [Compound 106, 4-phenylbutyl 2-[benzylsunfonyl]-perhydropyridazine-carboxylate], which % recovery of TH-stained dopaminergic neurons at 10 mg/kg is on record?
The % recovery of TH-stained dopaminergic neurons at 10 mg/kg was 23%.

With O=C(NC1CCCCC1)N1CCCCN1C(=O)OCCCCc1ccccc1 [Compound 154, 4-phenylbutyl 2-(N-cyclohexylcarbamoyl)-perhydropyridazine-carboxylate] as the compound, how does the % recovery of TH-stained dopaminergic neurons at 10 mg/kg read?
Its % recovery of TH-stained dopaminergic neurons at 10 mg/kg is 46%.
